Results on 18 compounds are retold here after patent publication US8865725B2, “Substituted imidazopyrimidin-5(6H)-ones as allosteric modulators of MGLUR5 receptors” (Vanderbilt University, priority 2011, dated 2014).

Where two headings read alike, the source gives them in different places. Where only a bound is given, the exact number is not on record here.

One data set deals with human mGluR5a receptor (Homo sapiens, UniProt P41594). Nature of the data set: Cell-based functional assay (Ca2+ mobilization, FDSS) for positive allosteric modulation of mGluR5. The note with it: for EC50: potentiation in presence of EC20 glutamate; for Emax: maximum % effect in concentration-response curve, as percent of response to maximally effective glutamate concentration. Here is the method: The mGluR5 activity was determined using the metabotropic glutamate receptor activity assays in human embryonic kidney cells as described herein, wherein the human embryonic kidney cells were transfected with human mGluR5. The compounds in Table I were synthesized with methods identical or analogous to those shown herein. The Synthetic Route Reference indicated in Table I refers to the Reaction Scheme number described above. The requisite starting materials were commercially available, described in the literature, or readily synthesized by one skilled in the art of organic synthesis.
Human mGluR5a cDNA in pCMV6-XL6 mammalian expression plasmid was purchased from OriGene Technologies, Inc. (catalogue number SC326357) and subcloned into pcDNA3.1(−). […] Monoclones were named for the species (“H” for human) plus the location on the plate (e.g. “10H”).
HEK cells transfected with the human mGluR5a receptor (H10H or H12H cell line) were plated at 15,000 cells/well in clear-bottomed poly-D-lysine-coated assay plates (BD Falcon) in glutamate-glutamine-free growth medium and incubated overnight at 37° C. and 5% CO2. Cell-lines used were either the H10H or H12H cell-lines expressing the human mGluR5 receptor. The following day, the growth medium was removed and the cells were washed with assay buffer containing 1× Hank's balanced salt solution (Invitrogen, Carlsbad, Calif.), 20 mM HEPES, 2.5 mM probenecid, pH 7.4 and left with 20 μL of this reagent. Following this step, the cells were loaded with calcium indicator dye, fluo-4 AM, to a final concentration of 2 μM and incubated for 40-45 min at 37° C. The dye solution was removed and replaced with assay buffer. Cell plates were held for 10-15 min at room temperature and were then loaded into the Functional Drug Screening System 6000 (FDSS 6000, Hamamatsu, Japan).
After establishment of a fluorescence baseline for about 3 seconds, the compounds of the present invention were added to the cells, and the response in cells was measured. 2.3 minutes later an EC20 concentration of the mGluR5 receptor agonist glutamate was added to the cells, and the response of the cells was measured for about 1.7 minutes. All test compounds were dissolved and diluted to a concentration of 10 mM in 100% DMSO and then serially diluted into assay buffer for a 2× stock solution in 0.6% DMSO; stock compounds were then added to the assay for a final DMSO concentration of 0.3% after the first addition to the assay well. Calcium fluorescence measures were recorded as fold over basal fluorescence; raw data was then normalized to the maximal response to glutamate.
The concentration-response curves of compounds of the present invention, obtained in the presence of EC20 of mGluR5 receptor agonist glutamate to determine positive allosteric modulation, were generated using Microsoft Excel with IDBS XLfit add-ins. The raw data file containing all time points was used as the data source in the analysis template. This was saved by the FDSS as a tab-delimitted text file. Data were normalized using a static ratio function (F/F0) for each measurement of the total 350 values per well divided by each well's initial value. Data was then reduced as to peak amplitudes (Max—Initial Min) using a time range that starts approximately 1 second after the glutamate EC20 addition and continues for approximately 40 seconds. This is sufficient time to capture the peak amplitude of the cellular Calcium response. Individual amplitudes were expressed as % EMax by multiplying each amplitude by 100 and then dividing the product by the mean of the amplitudes derived from the glutamate ECMax-treated wells. pEC50 values for test compounds were generated by fitting the normalized values versus the log of the test compound concentration (in mol/L) using a 4 parameter logistic equation where none of the parameters were fixed.

[1] abbreviates: HEK cells transfected with human mGluR5a (H10H or H12H), read-out: EC50.
Where [2] appears, read: HEK cells transfected with human mGluR5a (H10H or H12H), concentration in mol/L, read-out: pEC50 (converted).
Setting [3] is: EC50 (nM), HEK cells transfected with human mGluR5a (H10H or H12H).
Where [4] appears, read: pEC50, HEK cells transfected with human mGluR5a (H10H or H12H), concentration in mol/L.

Sequence of human mGluR5a receptor (P41594 21-1180 isoform P41594-2 limits assumed): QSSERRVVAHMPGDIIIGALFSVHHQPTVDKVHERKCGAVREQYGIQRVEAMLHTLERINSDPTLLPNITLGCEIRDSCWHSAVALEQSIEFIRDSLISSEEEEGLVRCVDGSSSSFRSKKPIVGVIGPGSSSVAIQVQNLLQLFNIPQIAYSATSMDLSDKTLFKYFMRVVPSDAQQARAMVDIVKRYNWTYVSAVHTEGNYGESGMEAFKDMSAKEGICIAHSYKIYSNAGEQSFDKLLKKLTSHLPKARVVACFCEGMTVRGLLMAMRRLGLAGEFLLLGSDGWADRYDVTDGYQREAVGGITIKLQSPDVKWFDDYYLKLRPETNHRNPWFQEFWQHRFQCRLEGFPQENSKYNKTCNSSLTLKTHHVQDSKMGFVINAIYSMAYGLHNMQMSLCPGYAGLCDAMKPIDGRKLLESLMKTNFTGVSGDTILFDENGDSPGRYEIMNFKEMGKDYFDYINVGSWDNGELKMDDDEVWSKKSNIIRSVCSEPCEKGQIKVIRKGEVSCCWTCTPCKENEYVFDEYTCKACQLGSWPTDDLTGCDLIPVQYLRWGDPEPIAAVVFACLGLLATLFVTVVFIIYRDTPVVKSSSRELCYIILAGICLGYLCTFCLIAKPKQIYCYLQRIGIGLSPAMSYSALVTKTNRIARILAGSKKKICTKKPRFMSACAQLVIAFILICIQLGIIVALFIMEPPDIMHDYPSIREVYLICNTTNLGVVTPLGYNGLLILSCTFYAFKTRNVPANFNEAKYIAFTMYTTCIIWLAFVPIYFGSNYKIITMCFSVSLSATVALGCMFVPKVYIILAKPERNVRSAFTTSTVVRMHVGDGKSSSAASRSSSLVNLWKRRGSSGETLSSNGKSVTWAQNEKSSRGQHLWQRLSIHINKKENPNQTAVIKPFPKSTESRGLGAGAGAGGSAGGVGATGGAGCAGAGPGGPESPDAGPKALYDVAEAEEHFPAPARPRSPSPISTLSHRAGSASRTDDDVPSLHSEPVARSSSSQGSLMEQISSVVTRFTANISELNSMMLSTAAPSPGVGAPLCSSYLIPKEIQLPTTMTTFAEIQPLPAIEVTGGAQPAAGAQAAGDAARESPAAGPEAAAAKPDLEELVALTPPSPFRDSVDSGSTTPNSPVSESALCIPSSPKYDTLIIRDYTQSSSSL

Take `O=c1[nH]ccc2nc(COc3ccccc3)cn12` [compound 1, 2-phenoxymethyl-6H-imidazo[1,2-c]pyrimidin-5-one]: the EC50 on human mGluR5a receptor (setting [1]) was > 30200 nM. The compound further showed an Emax at human mGluR5a receptor of 19%.
Turning to `Cn1ccc2nc(COc3ccccc3)cn2c1=O` [compound 2], the melting point was found to be 130.9 °C. In addition, the EC50 at human mGluR5a receptor (setting [1]) is > 10000 nM. Besides, on human mGluR5a receptor, the Emax was 69%.
Consider `O=c1n(-c2ccc(F)cc2)ccc2nc(COc3ccccc3)cn12` [compound 3], for which the melting point turned out to be 142.3 °C. The EC50 at human mGluR5a receptor (setting [2]) was 269 nM. The EC50 on human mGluR5a receptor (setting [1]) came out at 392 nM. This compound also registered an Emax at human mGluR5a receptor of 79%.
The compound `O=c1n(-c2cccc(F)c2)ccc2nc(COc3ccccc3)cn12` [compound 4] had a melting point of 123.4 °C. Besides, the EC50 on human mGluR5a receptor (setting [3]) came out at 525 nM. The same compound displayed an Emax at human mGluR5a receptor of 68%. Further, the EC50 on human mGluR5a receptor (setting [4]) was 513 nM.
The compound `O=c1n(-c2ccc(F)c(F)c2)ccc2nc(COc3ccccc3)cn12` [compound 5] yielded a melting point of 296.6 °C. Besides, the EC50 on human mGluR5a receptor (setting [3]) worked out at 228 nM. The EC50 on human mGluR5a receptor (setting [2]) is 214 nM. On human mGluR5a receptor, this compound showed an Emax of 79%.
With `O=c1n(-c2ccc(F)cc2)ccc2nc(COc3cccc(F)c3)cn12` [compound 6], the melting point came out at 141.1 °C. In addition, the EC50 on human mGluR5a receptor (setting [3]) worked out at 224 nM. For the same compound, the EC50 on human mGluR5a receptor (setting [2]) was 214 nM. For the same compound, the Emax at human mGluR5a receptor worked out at 73%.
`O=c1n(Cc2ccccc2)ccc2nc(COc3ccccc3)cn12` [compound 7]: the melting point worked out at 122.3 °C. Further, on human mGluR5a receptor (setting [1]), the EC50 is 1240 nM. The Emax at human mGluR5a receptor was 80%.
For `Cc1cccc(-n2ccc3nc(COc4ccccc4)cn3c2=O)n1` [compound 8], the melting point is > 300 °C. The EC50 at human mGluR5a receptor (setting [2]) was 2190 nM. For the same compound, the EC50 at human mGluR5a receptor (setting [1]) is 2290 nM. For the same compound, on human mGluR5a receptor, the Emax turned out to be 43%.
For the compound `O=c1n(-c2ccc(F)cn2)ccc2nc(COc3ccccc3)cn12` [compound 9], the EC50 at human mGluR5a receptor (setting [1]) was determined as 490 nM. The maximum response (Emax) at human mGluR5a receptor was determined as 75%.
Compound `Cc1nc(-n2ccc3nc(COc4ccccc4)cn3c2=O)ccc1F` [compound 10] displayed a melting point of 199.5 °C. Also, the EC50 at human mGluR5a receptor (setting [1]) is 292 nM. At human mGluR5a receptor, this compound gave an Emax of 70%.
With `Cc1ccc(-n2ccc3nc(COc4ccccc4)cn3c2=O)nc1` [compound 11], the melting point turned out to be 209.4 °C. Moreover, the EC50 on human mGluR5a receptor (setting [2]) was 1150 nM. The EC50 on human mGluR5a receptor (setting [1]) is 1320 nM. For the same compound, the Emax at human mGluR5a receptor came out at 59%.
For the compound `Cc1cccc(OCc2cn3c(=O)n(-c4ccc(F)cc4)ccc3n2)c1` [compound 12], the results for the EC50 on human mGluR5a receptor (setting [2]) and on human mGluR5a receptor (setting [1]) were 513 nM and 468 nM, respectively. The same compound returned an Emax at human mGluR5a receptor of 33%.
`N#Cc1cccc(OCc2cn3c(=O)n(-c4ccc(F)cc4)ccc3n2)c1` [compound 13] showed a melting point of 165 °C. Further, at human mGluR5a receptor (setting [1]), the EC50 was 350 nM. The Emax at human mGluR5a receptor is 40%.
`O=c1n(-c2ccc(F)cc2)ccc2nc(COc3ccc(F)cc3)cn12` [compound 14] showed a melting point of 163.4 °C. In addition, the EC50 on human mGluR5a receptor (setting [2]) is 309 nM. Moreover, at human mGluR5a receptor (setting [1]), the EC50 amounted to 302 nM. For the same compound, at human mGluR5a receptor, the Emax came out at 72%.
For `Cc1ccnc(-n2ccc3nc(COc4ccccc4)cn3c2=O)c1` [compound 15], the melting point worked out at 239.4 °C. For the same compound, the EC50 at human mGluR5a receptor (setting [2]) is > 10000 nM. Further, the EC50 on human mGluR5a receptor (setting [1]) is 8320 nM. For the same compound, the Emax on human mGluR5a receptor stood at 51%.
For the compound `O=c1n(-c2cccc(C(F)(F)F)c2)ccc2nc(COc3ccc(F)cc3)cn12` [compound 16], the melting point was > 300 °C. Besides, the EC50 at human mGluR5a receptor (setting [2]) is 1170 nM. In addition, on human mGluR5a receptor (setting [1]), the EC50 turned out to be 1290 nM. The compound further returned an Emax on human mGluR5a receptor of 50%.
In the case of `Cc1ccc(N2CCc3nc(COc4ccccc4)cn3C2=O)nc1` [compound 36, 6-(5-methyl-pyridin-2-yl)-2-phenoxymethyl-7,8-dihydro-6H-imidazo[1,2-c]pyrimidin-5-one], at human mGluR5a receptor (setting [1]), the EC50 is 468 nM. On human mGluR5a receptor, this compound returned an Emax of 63%.
In the case of `Cc1nc(N2CCc3nc(COc4ccccc4)cn3C2=O)ccc1F` [compound 38], the EC50 on human mGluR5a receptor (setting [1]) is 166 nM; on human mGluR5a receptor (setting [4]) it was 178 nM. The Emax on human mGluR5a receptor is 72%.
